In US20090226398A1, “ANTI-VIRAL COMPOUNDS, COMPOSITIONS, AND METHODS OF USE” (Genelabs Technologies, Inc., priority 2008, published 2009) one finds EC50 data, which are given here for 29 compounds.

The test system of the test is HCV replication. Kind of test: Replicon Assay (Huh-lucubineo-ET cells, luciferase readout). As to conditions: Hepatitis C virus; ET (Huh-lucubineo-ET) HCV replicon cell line; luciferase activity 48-72 hours after compound addition; 6 dilutions. Format: cell-based. As for the experimental part:
A cell line, ET (Huh-lucubineo-ET) was used for screening of compounds of the present invention for inhibition of HCV replication. The ET cell line was stably transfected with RNA transcripts harboring a I389luc-ubi-neo/NS3-3′/ET; replicon with firefly luciferase-ubiquitin-neomycin phosphotransferase fusion protein and EMCV-IRES driven NS3-5B polyprotein containing the cell culture adaptive mutations (E1202G; T1280I; K1846T) (Krieger at al, 2001 and unpublished). The ET cells were grown in DMEM, supplemented with 10% fetal calf serum, 2 mM Glutamine, Penicillin (100 IU/mL)/Streptomycin (100 μg/mL), 1× nonessential amino acids, and 250 μg/mL G418 (“Geneticin”). They were all available through Life Technologies (Bethesda, Md.). The cells were plated at 0.5−1.0×10^4 cells/well in the 96 well plates and incubated for 24 hrs before adding the test compounds. The compounds were then added to the cells to achieve a final concentration of 5 or 50 μM. Luciferase activity was measured 48-72 hours later by adding a lysis buffer and the substrate (Catalog number Glo-lysis buffer E2661 and Bright-Glo luciferase system E2620 Promega, Madison, Wis.). Cells should not be too confluent during the assay. Percent inhibition of replication was plotted relative to no compound control. For EC50 (effective concentration at which 50% of the maximum inhibition is observed) determinations, 6 dilutions of each compound were used. Compounds were typically diluted 3 fold to span a concentration range of 250 fold. EC50 and similarly TC50 values were calculated by fitting % inhibition at each concentration to the following equation:
% inhibition=100%/[(EC50/[I])^b+1]
where b is Hill's coefficient.
As to `Fc1ccccc1-c1nc2cnn(Cc3ccc(OC(F)(F)F)cc3)cc-2n1` [Compound 101, 2-(2-Fluoro-phenyl)-5-(4-trifluoromethoxy-benzyl)-5H-imidazo[4,5-d]pyridazine], the concentration giving a half-maximal response (EC50) was at least 50 µM.

In turn, `Fc1ccccc1-c1nc2cnn(Cc3ccc(Cl)cc3)cc-2n1` [Compound 102, 5-(4-Chloro-benzyl)-2-(2-fluoro-phenyl)-5H-imidazo[4,5-d]pyridazine] yielded an EC50 of at least 50 µM.

`Fc1cccc(-c2nc3cnn(Cc4ccc(-c5ccc(C(F)(F)F)cc5C(F)(F)F)nn4)cc-3n2)c1F` [Compound 104, 5-[6-(2,4-Bis-trifluoromethyl-phenyl)-pyridazin-3-ylmethyl]-2-(2,3-difluoro-phenyl)-5H-imidazo[4,5-d]pyridazine] returned a 50% effective concentration (EC50) of 0.06 µM.

In turn, `COc1ccc(-c2ccc(Cn3cc4nc(-c5cccc(F)c5F)nc-4cn3)nn2)cc1` [Compound 105, 2-(2,3-Difluoro-phenyl)-5-[6-(4-methoxy-phenyl)-pyridazin-3-ylmethyl]-5H-imidazo[4,5-d]pyridazine] showed a concentration for a half-maximal effect (EC50) of 7.4 µM.

The compound `CCCOc1ccc(-c2ccc(Cn3cc4nc(-c5cccc(F)c5F)nc-4cn3)cc2)cc1` [Compound 109, 2-(2,3-Difluoro-phenyl)-5-(4′-propoxy-biphenyl-4-ylmethyl)-5H-imidazo[4,5-d]pyridazine] registered a half-maximal effective concentration (EC50) of 30 µM.

`CCCCc1ccc(-c2ccc(Cn3cc4nc(-c5cccc(F)c5F)nc-4cn3)nn2)cc1` [Compound 115, 5-[6-(4-Butyl-phenyl)-pyridazin-3-ylmethyl]-2-(2,3-difluoro-phenyl)-5H-imidazo[4,5-d]pyridazine]: a half-maximal response (EC50) required 1.47 µM.

`Fc1cccc(-c2nc3cnn(Cc4ccc(-c5ccc(C(F)(F)F)cc5)nn4)cc-3n2)c1F` [Compound 116, 2-(2,3-Difluoro-phenyl)-5-[6-(4-trifluoromethyl-phenyl)-pyridazin-3-ylmethyl]-5H-imidazo[4,5-d]pyridazine] yielded an EC50 of at least 50 µM.

In turn, `Fc1cccc(-c2nc3cnn(Cc4ccc(-c5ccc(OC(F)(F)F)cc5)nn4)cc-3n2)c1F` [Compound 119, 2-(2,3-Difluoro-phenyl)-5-[6-(4-trifluoromethoxy-phenyl)-pyridazin-3-ylmethyl]-5H-imidazo[4,5-d]pyridazine] gave an EC50 of 3.1 µM.

`Fc1cccc(-c2nc3cnn(Cc4ccc(-c5ccc(C(F)(F)F)cc5C(F)(F)F)cn4)cc-3n2)c1F` [Compound 129, 5-[5-(2,4-Bis-trifluoromethyl-phenyl)-pyridin-2-ylmethyl]-2-(2,3-difluoro-phenyl)-5H-imidazo[4,5-d]pyridazine] returned an EC50 of 0.019 µM.

`Fc1cccc(-c2nc3cnn(Cc4ccc(-c5ccc(C(F)(F)F)cc5C(F)(F)F)nc4)cc-3n2)c1F` [Compound 130, 5-[6-(2,4-Bis-trifluoromethyl-phenyl)-pyridin-3-ylmethyl]-2-(2,3-difluoro-phenyl)-5H-imidazo[4,5-d]pyridazine] had an EC50 of 0.008 µM.

Consider `COc1ccc(-c2ccc(Cn3cc4nc(-c5cccc(F)c5F)nc-4cn3)c([N+](=O)[O-])c2)c(C(F)(F)F)c1` [Compound 201, 2-(2,3-Difluoro-phenyl)-5-(4-methoxy-3-nitro-2-trifluoromethyl-biphenyl-4-ylmethyl)-5H-imidazo[4,5-d]pyridazine], for which the concentration for a half-maximal effect (EC50) came to 0.05 µM.

Consider `COc1cccc(-c2ccc(Cn3cc4nc(-c5cccc(F)c5F)nc-4cn3)nn2)c1OC` [Compound 202, 2-(2,3-Difluoro-phenyl)-5-[6-(2,3-dimethoxy-phenyl)-pyridazin-3-ylmethyl]-5H-imidazo[4,5-d]pyridazine], for which the EC50 is at least 50 µM.

For the compound `Fc1cccc(-c2nc3cnn(Cc4ccc(-c5ccc(-c6cn[nH]c6)cc5C(F)(F)F)nn4)cc-3n2)c1F` [Compound 203, 2-(2,3-Difluoro-phenyl)-5-{6-[4-(1H-pyrazol-4-yl)-2-trifluoromethyl-phenyl]-pyridazin-3-ylmethyl}-5H-imidazo[4,5-d]pyridazine], the half-maximal effective concentration (EC50) turned out to be 21 µM.

For `Fc1cccc(-c2nc3cnn(Cc4ccc(-c5ccc(-c6cccnc6)cc5C(F)(F)F)nn4)cc-3n2)c1F` [Compound 204, 2-(2,3-Difluoro-phenyl)-5-[6-(4-pyridin-3-yl-2-trifluoromethyl-phenyl)-pyridazin-3-ylmethyl]-5H-imidazo[4,5-d]pyridazine], a half-maximal effect (EC50) was put at 0.656 µM.

Take `Fc1cccc(-c2nc3cnn(Cc4ccc(-c5ccc(-c6ccccc6)cc5C(F)(F)F)nn4)cc-3n2)c1F` [Compound 205, 2-(2,3-Difluoro-phenyl)-5-[6-(3-trifluoromethyl-biphenyl-4-yl)-pyridazin-3-ylmethyl]-5H-imidazo[4,5-d]pyridazine]: the half-maximal effective concentration (EC50) was 0.14 µM.

Compound `CCc1ccc(-c2ccc(Cn3cc4nc(-c5cccc(F)c5F)nc-4cn3)nn2)cc1` [Compound 206, 2-(2,3-Difluoro-phenyl)-5-[6-(4-ethyl-phenyl)-pyridazin-3-ylmethyl]-5H-imidazo[4,5-d]pyridazine] showed a concentration giving a half-maximal response (EC50) of at least 50 µM.

The compound `COc1ccc(-c2ccc(Cn3cc4nc(-c5cccc(F)c5F)nc-4cn3)nn2)c(OC)c1` [Compound 207, 2-(2,3-Difluoro-phenyl)-5-[6-(2,4-dimethoxy-phenyl)-pyridazin-3-ylmethyl]-5H-imidazo[4,5-d]pyridazine] displayed a concentration giving a half-maximal response (EC50) of at least 50 µM.

The compound `CC(C)Cc1ccc(-c2ccc(Cn3cc4nc(-c5cccc(F)c5F)nc-4cn3)nn2)cc1` [Compound 208, 2-(2,3-Difluoro-phenyl)-5-[6-(4-isobutyl-phenyl)-pyridazin-3-ylmethyl]-5H-imidazo[4,5-d]pyridazine] gave a 50% effective concentration (EC50) of at least 50 µM.

In the case of `CC(C)Oc1ccc(-c2ccc(Cn3cc4nc(-c5cccc(F)c5F)nc-4cn3)nn2)cc1` [Compound 209, 2-(2,3-Difluoro-phenyl)-5-[6-(4-isopropoxy-phenyl)-pyridazin-3-ylmethyl]-5H-imidazo[4,5-d]pyridazine], the EC50 was at least 50 µM.

Compound `Fc1cccc(-c2nc3cnn(Cc4ccc(-c5ccc(-c6ccncc6)cc5C(F)(F)F)nn4)cc-3n2)c1F` [Compound 210, 2-(2,3-Difluoro-phenyl)-5-[6-(4-pyridin-4-yl-2-trifluoromethyl-phenyl)-pyridazin-3-ylmethyl]-5H-imidazo[4,5-d]pyridazine] returned an EC50 of 0.735 µM.

`Cc1ccc(-c2ccc(Cn3cc4nc(-c5cccc(F)c5F)nc-4cn3)nn2)cc1` [Compound 211, 2-(2,3-Difluoro-phenyl)-5-(6-p-tolyl-pyridazin-3-ylmethyl)-5H-imidazo[4,5-d]pyridazine] displayed a half-maximal effective concentration (EC50) of 3.47 µM.

Compound `COc1ccc(-c2ccc(Cn3cc4nc(-c5ccccc5F)nc-4cn3)cn2)c(C(F)(F)F)c1` [Compound 212, 2-(2-Fluoro-phenyl)-5-[6-(4-methoxy-2-trifluoromethyl-phenyl)-pyridin-3-ylmethyl]-5H-imidazo[4,5-d]pyridazine] yielded a concentration giving a half-maximal response (EC50) of 0.081 µM.

Consider `COCc1ccc(-c2ccc(Cn3cc4nc(-c5cccc(F)c5F)nc-4cn3)nn2)cc1` [Compound 213, 2-(2,3-Difluoro-phenyl)-5-[6-(4-methoxymethyl-phenyl)-pyridazin-3-ylmethyl]-5H-imidazo[4,5-d]pyridazine], for which the half-maximal effective concentration (EC50) is at least 50 µM.

`CC(C)(C)OCc1ccc(-c2ccc(Cn3cc4nc(-c5cccc(F)c5F)nc-4cn3)nn2)cc1` [Compound 214, 5-[6-(4-tert-Butoxymethyl-phenyl)-pyridazin-3-ylmethyl]-2-(2,3-difluoro-phenyl)-5H-imidazo[4,5-d]pyridazine] gave a concentration giving a half-maximal response (EC50) of 47.4 µM.

With `CC(C)(C)c1ccc(-c2ccc(Cn3cc4nc(-c5cccc(F)c5F)nc-4cn3)nn2)cc1` [Compound 215, 5-[6-(4-tert-Butyl-phenyl)-pyridazin-3-ylmethyl]-2-(2,3-difluoro-phenyl)-5H-imidazo[4,5-d]pyridazine], the response was half-maximal at 11.6 µM (EC50).

For `Cn1ccc2cc(-c3ccc(Cn4cc5nc(-c6cccc(F)c6F)nc-5cn4)nn3)ccc21` [Compound 216, 2-(2,3-Difluoro-phenyl)-5-[6-(1-methyl-1H-indol-5-yl)-pyridazin-3-ylmethyl]-5H-imidazo[4,5-d]pyridazine], the EC50 is at least 50 µM.

Consider `CCOC(=O)CCc1ccc(-c2ccc(Cn3cc4nc(-c5cccc(F)c5F)nc-4cn3)nn2)cc1` [Compound 217, 3-(4-{6-[2-(2,3-Difluoro-phenyl)-imidazo[4,5-d]pyridazin-5-ylmethyl]-pyridazin-3-yl}-phenyl)-propionic acid ethyl ester], for which the midpoint of the response, the EC50, lay at 52 µM.

`COc1cccc(-c2ccc(Cn3cc4nc(-c5cccc(F)c5F)nc-4cn3)nn2)c1` [Compound 218, 2-(2,3-Difluoro-phenyl)-5-[6-(3-methoxy-phenyl)-pyridazin-3-ylmethyl]-5H-imidazo[4,5-d]pyridazine] yielded an EC50 of at least 50 µM.

In the case of `Fc1cccc(-c2nc3cnn(Cc4ccc(-c5ccc6c(c5)OCO6)nn4)cc-3n2)c1F` [Compound 219, 5-(6-Benzo[1,3]dioxol-5-yl-pyridazin-3-ylmethyl)-2-(2,3-difluoro-phenyl)-5H-imidazo[4,5-d]pyridazine], the EC50 was at least 50 µM.
